Laboratory results taken from ChEMBL document CHEMBL1201862, “PubChem BioAssay data set” (2004).
Activity calls are given as the source filed them.

How the values were obtained:
[1] = target: Dual specificity protein phosphatase 3 (Homo sapiens, UniProt P51452); assay: VHR1 inhibitor Ki determination, SAR follow-up, biochemical, colorimetric (AID 2004)
[2] = inhibitors of SNCA 5'UTR-driven reporter translation, confirmation, H4 neuroglioma cells, luminescence (AID 1988); assay type: functional, cell-based
[3] = Shn3 3'UTR reporter inhibitors, dose response, cell-based, Clone20 osteoblasts, firefly luciferase, cherry-picked (AID 624132); assay type: functional;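 further: firefly luciferase luminescence from reporter carrying the Shn3 3'UTR in osteoblasts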
[4] = system: H4; assay: inhibitors of control reporter signal in H4 cells – cell-based, plate reader, dry powder samples, counter-screen for prion reporter project, dose response (AID 540255); assay type: functional; details: Homo sapiens
[5] = target: T1, Nucleotide-binding oligomerization domain-containing protein 1 (Homo sapiens, UniProt Q9Y239); assay: NOD1 signaling inhibitors, SAR follow-up, revised (AID 2333); assay type: functional
T1 sequence (Q9Y239 whole entry): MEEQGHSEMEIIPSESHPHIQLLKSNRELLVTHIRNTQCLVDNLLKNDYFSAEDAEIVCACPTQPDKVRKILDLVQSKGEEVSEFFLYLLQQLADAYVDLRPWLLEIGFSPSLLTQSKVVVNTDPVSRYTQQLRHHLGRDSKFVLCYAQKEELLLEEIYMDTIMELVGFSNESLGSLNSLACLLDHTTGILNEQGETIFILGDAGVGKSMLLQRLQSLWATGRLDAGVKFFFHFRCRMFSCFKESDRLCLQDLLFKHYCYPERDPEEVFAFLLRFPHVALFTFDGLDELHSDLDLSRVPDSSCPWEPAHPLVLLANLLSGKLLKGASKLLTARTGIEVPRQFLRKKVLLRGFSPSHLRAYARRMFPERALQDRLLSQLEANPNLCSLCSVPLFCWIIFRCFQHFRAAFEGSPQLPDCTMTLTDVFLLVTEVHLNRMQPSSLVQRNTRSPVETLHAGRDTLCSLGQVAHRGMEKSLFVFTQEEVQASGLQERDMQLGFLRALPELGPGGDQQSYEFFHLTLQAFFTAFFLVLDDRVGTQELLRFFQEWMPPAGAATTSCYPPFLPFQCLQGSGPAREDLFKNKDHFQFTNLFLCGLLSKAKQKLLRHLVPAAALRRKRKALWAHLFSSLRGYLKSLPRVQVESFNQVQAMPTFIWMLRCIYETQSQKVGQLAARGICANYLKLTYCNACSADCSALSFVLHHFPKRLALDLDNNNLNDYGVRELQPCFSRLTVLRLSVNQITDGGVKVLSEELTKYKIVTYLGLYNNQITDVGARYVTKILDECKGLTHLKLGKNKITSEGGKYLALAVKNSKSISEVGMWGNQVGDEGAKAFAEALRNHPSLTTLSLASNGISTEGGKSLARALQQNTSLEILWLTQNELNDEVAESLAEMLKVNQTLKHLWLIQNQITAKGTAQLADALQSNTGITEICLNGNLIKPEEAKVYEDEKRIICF

[6] = Luminescence-based counterscreen assay for KLF5 inhibitors: dose response cell-based high throughput screening assay to identify cytotoxic compounds using the IEC-6 intestinal epithelial cell line. [Related pubchem assays: 1700 (Primary screen.), 1834 (Confirmation screen.), 1858 (Summary AID.), 1905 (Counterscreen.)]; assay type: functional
[7] = inhibitors of firefly luciferase expression or activity, dose response, H4 neuroglioma cells, luminescence (AID 1990); assay type: functional, cell-based
[8] = cells; assay type: functional, cell-based
[9] = target: T2, Heat shock factor protein 1 (Mus musculus, UniProt P38532); assay: inhibition of MG132-induced HSE-luciferase signal, confirmation, cell-based, NIH3T3, luminescence, dose retest (AID 2382); assay type: functional;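 further: NIH3T3 fibroblasts with HSF1-driven luciferase reporter stressed by proteasome inhibitor MG132; luminescence from HSF1-driven luciferase expression after 8 hours of MG132 stress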
T2 sequence (P38532 whole entry): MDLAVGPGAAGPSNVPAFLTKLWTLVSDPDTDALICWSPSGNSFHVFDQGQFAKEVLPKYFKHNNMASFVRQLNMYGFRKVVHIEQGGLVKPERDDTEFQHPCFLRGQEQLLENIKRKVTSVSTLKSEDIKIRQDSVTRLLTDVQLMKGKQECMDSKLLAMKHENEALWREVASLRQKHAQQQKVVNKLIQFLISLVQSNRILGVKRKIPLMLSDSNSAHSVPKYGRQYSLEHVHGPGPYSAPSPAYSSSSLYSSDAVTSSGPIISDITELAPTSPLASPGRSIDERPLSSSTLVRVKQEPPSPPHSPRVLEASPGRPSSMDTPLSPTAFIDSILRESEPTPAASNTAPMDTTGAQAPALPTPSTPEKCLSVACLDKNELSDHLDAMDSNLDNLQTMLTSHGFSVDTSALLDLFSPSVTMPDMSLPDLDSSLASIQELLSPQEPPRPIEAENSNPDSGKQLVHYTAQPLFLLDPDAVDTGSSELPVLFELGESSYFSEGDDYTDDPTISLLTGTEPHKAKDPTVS

[10] = Luminescence Cell-Based Dose Response HTS to Identify Inhibitors of 5'UTR Stem-Loop Driven Prion Protein mRNA Translation in H4 Neuroglioblastoma Cells. [Related pubchem assays: 1827 (Project Summary), 1813 (Primary HTS)]; assay type: functional
[11] = inhibitors of SNCA 5'UTR-driven translation, confirmation, luminescence, H4 neuroglioblastoma cells, dose confirmation (AID 2454); assay type: functional, cell-based;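 further: H4 neuroglioblastoma cells carrying an alpha-synuclein 5'UTR luciferase reporter; potency for inhibition of the luciferase signal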
[12] = system: H4; assay: Amyloid Precursor 5' UTR neuroblastoma cell reporter line Measured in Cell-Based System Using Plate Reader - 2078-04_Inhibitor_Dose_DryPowder_Activity. [Related pubchem assays (depositor defined):AID488894]; assay type: functional; details: Homo sapiens
[13] = reduction of Shn3 3'UTR firefly luciferase signal, dose response, Schnurri-3 inhibitor project, cell-based, Clone20 osteoblasts, cherry-pick, set 2 (AID 720490); assay type: functional;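 further: actives lower the luminescence signal as inhibitors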
[14] = system: HEK293; assay: cells; details: Homo sapiens;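 further: cells exposed to compound for 14 hours overnight before viability readout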
[15] = target: Tumor necrosis factor (Homo sapiens, UniProt P01375); assay: TNFa-triggered NF-kB activation inhibitors, SAR follow-up, cell-based, revised (AID 2337); assay type: functional
Chain of Tumor necrosis factor (P01375 whole entry): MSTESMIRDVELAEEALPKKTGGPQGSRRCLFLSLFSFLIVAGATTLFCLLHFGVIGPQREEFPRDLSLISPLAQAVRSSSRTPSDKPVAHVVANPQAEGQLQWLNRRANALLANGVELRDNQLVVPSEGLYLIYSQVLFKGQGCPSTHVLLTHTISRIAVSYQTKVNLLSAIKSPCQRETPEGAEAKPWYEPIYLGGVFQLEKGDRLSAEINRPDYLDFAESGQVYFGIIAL

[16] = system: H4; assay: Inhibitors of Prion Protein 5' UTR mRNA Measured in Cell-Based System Using Plate Reader - 2078-01_Inhibitor_Dose_DryPowder_Activity. [Related pubchem assays (depositor defined):AID488894]; assay type: functional; details: Homo sapiens
[17] = luciferase reporter signal reduction – luminescence, H4-C neuroglioblastoma cells, dose response (AID 2458); assay type: functional, cell-based;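 further: H4 neuroglioblastoma cells stably carrying a luciferase reporter gene fusion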
[18] = target: Luciferin 4-monooxygenase (Photinus pyralis, UniProt P08659); assay: firefly luciferase enzyme inhibitors, dose response, biochemical, dry powder samples, plate reader (AID 588451)
Chain of Luciferin 4-monooxygenase (P08659 whole entry): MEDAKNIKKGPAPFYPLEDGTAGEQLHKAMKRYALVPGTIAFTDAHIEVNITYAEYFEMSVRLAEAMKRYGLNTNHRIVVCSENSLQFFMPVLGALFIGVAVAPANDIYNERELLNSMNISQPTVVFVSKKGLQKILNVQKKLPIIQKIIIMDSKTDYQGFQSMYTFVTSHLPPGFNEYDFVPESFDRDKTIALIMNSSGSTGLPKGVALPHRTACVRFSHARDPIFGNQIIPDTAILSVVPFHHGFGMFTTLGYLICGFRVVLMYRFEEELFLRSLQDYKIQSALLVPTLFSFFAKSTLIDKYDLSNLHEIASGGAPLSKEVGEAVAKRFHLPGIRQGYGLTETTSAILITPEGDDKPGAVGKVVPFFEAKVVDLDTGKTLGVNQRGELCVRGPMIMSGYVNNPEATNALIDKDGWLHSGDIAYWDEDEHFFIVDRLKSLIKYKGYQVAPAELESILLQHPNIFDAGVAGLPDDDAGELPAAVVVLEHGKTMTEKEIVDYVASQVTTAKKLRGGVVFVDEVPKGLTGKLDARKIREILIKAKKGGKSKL

[19] = target: Beta-galactosidase (Escherichia coli, UniProt Q8VNN2); assay: beta-galactosidase enzyme inhibitors and activators, dose response, artefact control for CCR6 antagonist project, biochemical, E. coli enzyme, set 3 (AID 504712); assay type: functional
Chain of Beta-galactosidase (Q8VNN2 whole entry): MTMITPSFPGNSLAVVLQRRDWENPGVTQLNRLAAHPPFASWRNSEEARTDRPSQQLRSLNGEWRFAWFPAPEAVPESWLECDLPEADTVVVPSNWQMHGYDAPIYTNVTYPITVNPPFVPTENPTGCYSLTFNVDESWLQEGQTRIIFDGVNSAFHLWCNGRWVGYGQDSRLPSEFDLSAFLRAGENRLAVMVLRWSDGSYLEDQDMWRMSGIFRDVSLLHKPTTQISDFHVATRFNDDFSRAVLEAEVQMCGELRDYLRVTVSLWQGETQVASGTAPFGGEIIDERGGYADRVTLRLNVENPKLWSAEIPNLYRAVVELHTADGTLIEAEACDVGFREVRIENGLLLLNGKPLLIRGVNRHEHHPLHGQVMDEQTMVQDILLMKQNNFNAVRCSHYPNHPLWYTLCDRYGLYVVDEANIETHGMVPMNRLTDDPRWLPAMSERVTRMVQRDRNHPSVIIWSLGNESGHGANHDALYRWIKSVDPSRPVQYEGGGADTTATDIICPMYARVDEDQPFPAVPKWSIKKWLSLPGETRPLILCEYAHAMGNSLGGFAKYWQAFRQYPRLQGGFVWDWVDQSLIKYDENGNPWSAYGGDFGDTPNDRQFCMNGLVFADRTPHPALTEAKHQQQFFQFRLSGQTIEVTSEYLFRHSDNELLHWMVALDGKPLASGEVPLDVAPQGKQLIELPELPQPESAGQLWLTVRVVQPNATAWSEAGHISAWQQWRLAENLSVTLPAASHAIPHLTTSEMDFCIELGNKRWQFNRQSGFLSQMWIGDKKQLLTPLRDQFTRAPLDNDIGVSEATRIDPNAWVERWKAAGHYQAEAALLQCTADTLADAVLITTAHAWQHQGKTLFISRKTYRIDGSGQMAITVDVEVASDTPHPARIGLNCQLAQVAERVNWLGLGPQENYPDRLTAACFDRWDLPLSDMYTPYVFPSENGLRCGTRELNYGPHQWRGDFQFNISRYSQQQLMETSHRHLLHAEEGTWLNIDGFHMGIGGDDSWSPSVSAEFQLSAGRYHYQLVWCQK

[20] = target: C-C chemokine receptor type 6 (Homo sapiens, UniProt P51684); assay: CCR6 receptor antagonists, dose response, cell-based, luminescent beta-arrestin readout (AID 504728); assay type: functional
Chain of C-C chemokine receptor type 6 (P51684 whole entry): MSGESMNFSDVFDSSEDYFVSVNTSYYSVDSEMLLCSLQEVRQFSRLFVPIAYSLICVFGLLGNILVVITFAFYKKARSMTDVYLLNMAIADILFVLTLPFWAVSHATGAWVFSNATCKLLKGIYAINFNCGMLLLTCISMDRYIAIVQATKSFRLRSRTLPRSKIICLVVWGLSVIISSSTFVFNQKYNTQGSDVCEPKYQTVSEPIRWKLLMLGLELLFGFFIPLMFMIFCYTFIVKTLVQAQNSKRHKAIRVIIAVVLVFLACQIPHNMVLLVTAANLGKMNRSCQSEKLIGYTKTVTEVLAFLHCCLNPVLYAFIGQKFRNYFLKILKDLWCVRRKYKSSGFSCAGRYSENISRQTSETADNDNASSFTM

[21] = target: T3, Endoribonuclease toxin MazF (Escherichia coli K-12, UniProt P0AE70); assay: MazF toxin RNase activators, dose response, biochemical, fluorescence, single-stranded RNA substrate, uHTS hits (AID 588481); assay type: functional
T3 sequence (P0AE70 whole entry): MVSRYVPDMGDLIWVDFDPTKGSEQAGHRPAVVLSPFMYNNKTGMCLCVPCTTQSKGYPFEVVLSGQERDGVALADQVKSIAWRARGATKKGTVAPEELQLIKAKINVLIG

[22] = target: 26S proteasome non-ATPase regulatory subunit 14 (Homo sapiens, UniProt O00487); assay: inhibition of proteasome subunit RPN11 – biochemical, fluorescence polarization, uHTS hits, confirmation (AID 602368); assay type: functional
Chain of 26S proteasome non-ATPase regulatory subunit 14 (O00487 whole entry): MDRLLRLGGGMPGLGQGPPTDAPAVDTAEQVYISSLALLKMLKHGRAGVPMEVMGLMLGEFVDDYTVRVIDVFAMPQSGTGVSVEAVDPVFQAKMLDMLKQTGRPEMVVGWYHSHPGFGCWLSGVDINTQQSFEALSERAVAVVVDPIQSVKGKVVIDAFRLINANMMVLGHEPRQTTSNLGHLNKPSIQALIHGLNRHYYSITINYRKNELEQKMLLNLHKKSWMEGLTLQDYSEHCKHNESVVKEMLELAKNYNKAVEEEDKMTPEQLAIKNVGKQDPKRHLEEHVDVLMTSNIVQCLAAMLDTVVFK

[23] = target: Prothrombin (Bos taurus, UniProt P00735); assay: thrombin inhibition, dose response, biochemical, fluorescence polarization, uHTS hits (AID 602369); assay type: functional
[24] = target: 72 kDa type IV collagenase (Homo sapiens, UniProt P08253); assay: Dose Response validation of uHTS RPN11 inhibitor hits using a MMP-2 Fluorescence assay.; assay type: functional
Chain of 72 kDa type IV collagenase (P08253 whole entry): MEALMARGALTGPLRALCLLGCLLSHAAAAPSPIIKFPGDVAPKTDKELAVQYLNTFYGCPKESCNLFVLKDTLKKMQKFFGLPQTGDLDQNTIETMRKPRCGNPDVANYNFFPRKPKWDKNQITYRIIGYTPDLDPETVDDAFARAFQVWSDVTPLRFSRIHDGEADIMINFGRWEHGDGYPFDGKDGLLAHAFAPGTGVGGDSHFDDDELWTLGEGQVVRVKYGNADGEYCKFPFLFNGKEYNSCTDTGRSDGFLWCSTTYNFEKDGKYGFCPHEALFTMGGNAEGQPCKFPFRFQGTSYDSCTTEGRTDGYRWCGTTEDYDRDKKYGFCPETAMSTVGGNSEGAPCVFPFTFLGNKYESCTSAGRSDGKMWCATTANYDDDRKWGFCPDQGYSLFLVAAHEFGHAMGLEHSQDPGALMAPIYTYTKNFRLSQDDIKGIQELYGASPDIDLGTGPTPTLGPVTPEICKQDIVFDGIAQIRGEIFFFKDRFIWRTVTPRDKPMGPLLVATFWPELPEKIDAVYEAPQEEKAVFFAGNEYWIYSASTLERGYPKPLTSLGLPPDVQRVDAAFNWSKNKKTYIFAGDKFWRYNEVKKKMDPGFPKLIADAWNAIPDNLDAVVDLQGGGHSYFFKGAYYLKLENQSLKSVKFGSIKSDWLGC

[25] = target: T3, Endoribonuclease toxin MazF; assay: fluorescent RNA oligo signal without MazF, dose response, counter-screen for MazEF activator project, biochemical, fluorescence, single-stranded RNase substrate (AID 588502); assay type: functional
[26] = target: Nucleotide-binding oligomerization domain-containing protein 2 (Homo sapiens, UniProt Q9HC29); assay: PubChem AID 2334; assay type: functional
Chain of Nucleotide-binding oligomerization domain-containing protein 2 (Q9HC29 whole entry, the tested form may be a part): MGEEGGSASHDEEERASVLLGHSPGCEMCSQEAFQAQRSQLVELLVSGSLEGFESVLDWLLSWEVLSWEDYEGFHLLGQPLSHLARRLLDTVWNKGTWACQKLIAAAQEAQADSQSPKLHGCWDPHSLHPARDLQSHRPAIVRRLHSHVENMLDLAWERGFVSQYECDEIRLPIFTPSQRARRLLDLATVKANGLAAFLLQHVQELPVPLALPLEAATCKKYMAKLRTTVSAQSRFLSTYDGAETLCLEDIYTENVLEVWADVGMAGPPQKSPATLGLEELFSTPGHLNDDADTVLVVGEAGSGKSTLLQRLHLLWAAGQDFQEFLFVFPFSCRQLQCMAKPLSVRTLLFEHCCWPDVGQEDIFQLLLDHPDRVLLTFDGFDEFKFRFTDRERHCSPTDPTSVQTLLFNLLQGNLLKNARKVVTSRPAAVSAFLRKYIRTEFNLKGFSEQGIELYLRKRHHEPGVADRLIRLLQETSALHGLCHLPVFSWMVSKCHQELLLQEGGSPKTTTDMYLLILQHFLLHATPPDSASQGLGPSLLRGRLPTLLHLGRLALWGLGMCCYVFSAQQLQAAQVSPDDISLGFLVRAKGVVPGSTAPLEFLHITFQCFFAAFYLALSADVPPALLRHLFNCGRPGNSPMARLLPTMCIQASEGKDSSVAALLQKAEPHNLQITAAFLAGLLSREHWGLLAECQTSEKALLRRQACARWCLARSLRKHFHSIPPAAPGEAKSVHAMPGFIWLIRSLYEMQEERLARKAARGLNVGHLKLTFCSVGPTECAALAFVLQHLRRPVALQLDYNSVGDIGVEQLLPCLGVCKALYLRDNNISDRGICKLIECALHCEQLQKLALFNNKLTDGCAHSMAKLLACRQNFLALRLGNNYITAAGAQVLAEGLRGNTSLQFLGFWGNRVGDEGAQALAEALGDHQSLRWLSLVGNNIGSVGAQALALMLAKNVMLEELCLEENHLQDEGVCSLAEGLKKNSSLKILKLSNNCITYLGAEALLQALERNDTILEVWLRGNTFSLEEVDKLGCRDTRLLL

Chain of Dual specificity protein phosphatase 3 (P51452 whole entry): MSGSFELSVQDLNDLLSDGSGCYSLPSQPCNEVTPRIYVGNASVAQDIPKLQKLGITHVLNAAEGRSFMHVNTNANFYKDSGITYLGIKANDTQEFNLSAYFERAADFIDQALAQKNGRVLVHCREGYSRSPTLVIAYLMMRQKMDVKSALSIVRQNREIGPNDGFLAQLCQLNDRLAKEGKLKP

Structure (SMILES): O=C1NC(=S)/C(=C\c2ccc(-c3ccc([N+](=O)[O-])cc3)o2)S1
- Ki [1]: 1.86 µM (active)

Structure (SMILES): Cc1cc(C(=O)COC(=O)c2ccccc2O)c(C)n1Cc1cccs1
- EC50 [2]: < 100 nM (active)
- AC50 [3]: 8.99 µM (active)
- AC50 [4]: 66 nM (active)
- IC50 [5]: 0.285 µM (active)
- IC50 [6]: > 39.8 µM (not active)
- EC50 [7]: < 100 nM (active)
- EC50 [8]: 146 nM (active)
- EC50 [9]: < 160 nM (active)
- EC50 [10]: < 100 nM (active)
- EC50 [11]: 159 nM (active)
- AC50 [12]: 3.32 nM (active)
- AC50 [13]: < 135 nM (active)
- IC50 [14]: > 20 µM (inactive)
- IC50 [15]: < 0.0391 µM (active)
- AC50 [16]: 13 nM (active)
- EC50 [17]: 102 nM (active)
- AC50 [18]: 12.2 µM (active)

Structure (SMILES): COc1ccccc1C(=O)/N=C(\N)Nc1nc2ccccc2o1
- IC50 [19]: > 66.6 µM (inactive)
- IC50 [20]: > 66.6 µM (inactive)
- EC50 [21]: > 99 µM (inactive)
- IC50 [22]: 38.3 µM (active)
- IC50 [23]: 60.9 µM (active)
- IC50 [24]: > 100 µM (inactive)
- EC50 [25]: > 99 µM (inactive)

Structure (SMILES): O=C(Nc1sc2c(c1C(=O)O)CCCC2)C(=O)N1CCOCC1
- IC50 [5]: > 20 µM (inactive)
- IC50 [14]: > 20 µM (inactive)
- IC50 [15]: > 20 µM (inactive)
- IC50 [26]: > 20 µM (inactive)
